Measured values as given in US11382920B2, “Therapeutic effects of Guanabenz treatment in vanishing white matter” (Stichting VUmc, priority 2017, dated 2022).

How the values were obtained:
ATF4 expression = assay: Stress-sensitive ATF4 luciferase reporter transfection assay (pNL1.1-mATF4) in U373 cells; format: cell-based, human; conditions: 15 μM compound added with 3 nM thapsigargin for 16 hours
Description: FIG. 9. […] ATF4 expression was assessed with a luciferase reporter construct under regulation of the murine Atf4 promoter and 5′ non-coding region. Cells were transfected as described. The ISR was induced by administration of 3 nM thapsigargin (TG) to the cell culture medium. […] Guanfacin (Gf), an a2 adrenergic receptor agonist without reported GADD34 modulating activity, was included in parallel as negative control. […] Statistical analyses were performed for individual compounds with a paired t-test (*, p<0.05, **, p<0.01).
The a2 adrenergic receptor agonist Guanabenz (Gb) has been reported to also target GADD34 and thereby impact on a negative feedback loop of the ISR [16]. GADD34 promotes dephosphorylation of eIF2P. Gb is thought to inhibit GADD34, it is thereby though to increase and prolong eIF2a phosphorylation and consequently increases production of ATF4 and its regulated transcriptome. We tested the effect of Gb on ATF4 production in U373 cell lines using a stress-sensitive transfection assay. Transfections were performed with the pNL1.1-mATF4 reporter construct, in which expression of the reporter gene is controlled by ISR-responsive sequences. Expression from the reporter construct was measured 2 days after transfection with a commercially available chemiluminescent assay and can be directly interpreted as a measure for ATF4 expression.
ATF4 expression was investigated in the absence or presence of ISR activation. […] Gb was added together with thapsigargin to the culture medium to test the effect of Gb on ATF4 expression. […] The eIF2B-enhancing compound ISRIB was included as positive control for ATF4-regulation.

eIF2a phosphorylation = eIF2a phosphorylation in brain tissue (Western blot) after one Gb injection; format: in vivo, mouse; conditions: wt and 2b5ho mice, one dose 10 mg/kg i.p., vs saline
Description: (§1) FIG. 10. […] Statistical analysis was performed with two-way ANOVA (*, p<0.05, **, p<0.01, ***, p<0.001).
(§2) As (unpublished) part of this study, we investigated the effect of Gb on the expression of ATF4 and its regulated transcriptome in mice. […] In short, we injected one dose of 10 mg/kg Gb intraperitoneally into four wildtype (wt) and four 2b5ho mice. Saline-injected wt and 2b5ho mice were used as negative controls for measuring Gb effects on ISR markers. […] Organs were removed, snap frozen in liquid nitrogen and stored at −80° C. Tissue samples for RNA and protein analyses were prepared as described. In postmortem brain tissue we measured levels of phosphorylated eIF2a with Western blot and levels of mRNAs encoding ATF4 and ATF4-regulated targets CHOP and TRIB3 with qPCR.

[1] = in vivo; cited from earlier work
[2] = tested on: mRNAs encoding ATF4 and ATF4-regulated targets CHOP and TRIB3; assay: ISR marker mRNA levels in brain tissue (qPCR) after one Gb injection; format: in vivo, mouse; conditions: one dose 10 mg/kg i.p., vs saline
Description: as §1, §2

2b5^ho mice [3] = assay: In situ hybridization for Plp-expressing cells after Guanabenz treatment; format: in vivo, mouse; conditions: Guanabenz i.p. weekly 2-10 months, forebrain (corpus callosum) and cerebellum, vs saline
Description: (§3) Tissue sections of 11 WT and 10 2b5^ho (carrying a homozygous Arg191His mutation in the Eif2b5 gene [7]) animals of 2, 5 or 7 months of age were collected after intracardiac perfusion with 4% paraformaldehyde (PFA). The brains were postfixed in 4% PFA for 1-2 days, after which half of the brain was embedded in paraffin and the other half was incubated overnight in 30% sucrose and snapfrozen in optimum cutting temperature compound (Sakura). […] To test the effect of Guanabenz, 11 female 2b5^ho littermates were injected with saline (n=5) or Guanabenz (10 mg/kg; n=6) i.p. every week from 2 months until 10 months of age. Animals were randomly assigned to the Guanabenz or saline group, and single animals were taken as experimental units. At 11 months of age all mice were sacrificed and the brains were used for analysis. The brains of 3 saline- and 4 Guanabenz-injected animals were perfused as described and used for immunostaining and in situ hybridization. […]
In situ hybridization targeting proteolipid protein (Plp) mRNA was performed on PFA-fixed snapfrozen tissue as previously described [7, 25]. […] The number of Plp-positive cells was analyzed in the rostrum and splenium of the corpus callosum, and in the white matter of the cerebellum. For each area 3 different pictures were taken with a 100× objective lens and cells were counted in a 100×200 μm square.

2b5^ho mice [4] = assay: Western blot for myelin proteins MBP and MOG after Guanabenz treatment; format: in vivo, mouse; conditions: Guanabenz vs saline, n=2
Description: To test the effect of Guanabenz, 11 female 2b5^ho littermates were injected with saline (n=5) or Guanabenz (10 mg/kg; n=6) i.p. every week from 2 months until 10 months of age. Animals were randomly assigned to the Guanabenz or saline group, and single animals were taken as experimental units. At 11 months of age all mice were sacrificed and the brains were used for analysis. The brains of 3 saline- and 4 Guanabenz-injected animals were perfused as described and used for immunostaining and in situ hybridization. The brains of 2 saline- and 2 Guanabenz-injected animals were snapfrozen in liquid nitrogen and used for western blot analysis. No animals were excluded from any analysis.
Half of the forebrain and the whole cerebellum of 2 saline- and 2 Guanabenz-treated animals were separately used for western blot analysis. Forebrains were lysed in lysis buffer (50 mM Hepes, 150 mM NaCl, 1 mM EDTA, 2.5 mM ethylene glycol-bis(β-aminoethyl-ether)-N,N,N′,N′-tetraacetic acid, 0.1% Triton-X100, 10% glycerol, 1 mM dithiothreitol) supplemented with protease inhibitor cocktail (ThermoFisher Scientific) using a dounce tissue grinder (Sigma-Aldrich). […] Supernatants were collected and protein concentrations were measured with a Bradford assay. […] Secondary antibodies were raised against mouse or rabbit and conjugated with horseradish peroxidase. Blots were developed with SuperSignal™ West Femto Maximum Sensitivity Substrate (ThermoFisher Scientific) and measured in an Odyssey® Fc Imaging System (LI-COR Inc). Intensity of bands was quantified with ImageJ software and corrected for total amount of protein.

2b5^ho mice [5] = assay: Analysis of Bergmann glia translocation (S100ß/GFAP staining) after Guanabenz treatment; format: in vivo, mouse
Description: Tissue sections of 11 WT and 10 2b5^ho (carrying a homozygous Arg191His mutation in the Eif2b5 gene [7]) animals of 2, 5 or 7 months of age were collected after intracardiac perfusion with 4% paraformaldehyde (PFA). The brains were postfixed in 4% PFA for 1-2 days, after which half of the brain was embedded in paraffin and the other half was incubated overnight in 30% sucrose and snapfrozen in optimum cutting temperature compound (Sakura). […] To test the effect of Guanabenz, 11 female 2b5^ho littermates were injected with saline (n=5) or Guanabenz (10 mg/kg; n=6) i.p. every week from 2 months until 10 months of age. Animals were randomly assigned to the Guanabenz or saline group, and single animals were taken as experimental units. At 11 months of age all mice were sacrificed and the brains were used for analysis. […]
(§4) Mouse tissue was processed for immunostaining as previously described [7]. […] Stainings were analyzed with a LeicaDM6000B microscope (Leica Microsystems). […]
Bergmann glia pathology was analyzed in S100ß-stained sections. […] All the S100-positive cell bodies inside this band were counted and considered correctly localized. The S100ß-positive cell bodies located outside the band in the molecular layer were counted and considered as translocated Bergmann glia. The amount of translocated cell bodies was expressed as a ratio to the total number of S100ß-positive cell bodies counted.

2b5^ho mice [6] = assay: Nestin cell count in corpus callosum after Guanabenz treatment of VWM mice; format: in vivo, mouse; conditions: Guanabenz i.p. weekly from 2 to 10 months of age, analysed at 11 months, vs saline, p=0.289, not significant
Description: as §3, §4
Astrocytes double-positive for nestin and GFAP were counted in the splenium and rostrum of the corpus callosum, on 100× magnification pictures. Total cell number was determined by counting the DAPI-positive nuclei. For each animal, at least 3 slices were stained and counted. […]

## O=C(COc1ccc(Cl)cc1)NC1CCC(NC(=O)COc2ccc(Cl)cc2)CC1 (centres unmarked) [ISRIB]
ATF4 expression
  ATF4 expression under stress: reduced

## N=C(N)NC(=O)Cc1c(Cl)cccc1Cl [Guanfacine, guanfacine]
ATF4 expression
  ATF4 expression under stress: small, variable and not statistically significant

## NC(N)=N/N=C/c1c(Cl)cccc1Cl [Guanabenz, guanabenz]
eIF2a phosphorylation
  levels of eIF2a phosphorylation in brain tissue, 4 hours after injection: lower than in saline-injected animals
  levels of eIF2a phosphorylation in brain tissue, 24 hours after injection: normalized
[1]
  half-life in blood/tissue: approximately 6 hours
[2]; 4 and 24 hours
  Atf4 mRNA levels in brain tissue, 2b5ho mice: transient decrease
  Ddit3 mRNA expression in brain tissue, 2b5ho mice: reduced at both time points
[2]; 4 and 24 hours, not significant at 4 hours
  Trib3 mRNA expression in brain tissue, 2b5ho mice: reduced at both time points
[2]; n=2
  Atf4 mRNA expression level in brain tissue, wt mice: unaffected
2b5^ho mice [3]
  number of Plp-expressing cells: slightly increased in the forebrain and cerebellum, though not significantly
ATF4 expression
  ATF4 expression under stress: increased
2b5^ho mice [4]
  amount of MBP protein, cerebellum: increased
  amount of MOG protein, cerebellum: increased
  amount of MOG protein, forebrain: increased
2b5^ho mice [5]; Guanabenz i.p. weekly 2-10 months, cerebellum
  GFAP expression and Bergmann glia morphology: decreased GFAP expression and a normalization of Bergmann glia morphology
2b5^ho mice [5]; Guanabenz i.p. weekly from 2 to 10 months of age, analysed at 11 months, vs saline, p=0.032, reached numbers of untreated WT
  decrease of number of translocated Bergmann glia cell bodies: 30%
2b5^ho mice [6]
  average decrease of number of nestin-positive cells in the corpus callosum: 27%
